Assay results as given in the supplement of paper PMC10307832.

Key:
Experiment in all cases: relative viability (nuclei count vs DMSO), 5 days (fraction); higher = more cells survive
BAY61-3606 + Vorinostat = compound: COC1=C(C=C(C=C1)C2=CC3=NC=CN3C(=N2)NC4=C(C=CC=N4)C(=O)N)OC [BAY61-3606] + O=C(CCCCCCC(=O)Nc1ccccc1)NO [Vorinostat] (partner 1 µM)
Method in brief: (§1)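 Relative viability equals treated-well nuclei counts divided by vehicle-well nuclei counts. Counts came from 4× images of lung cancer cell lines grown in 1536-well plates for 5 days after pin-tool dosing on the day after seeding. Dosing used one drug alone or a fixed anchor-drug dose plus five library-drug doses (not always all listed) in √10 steps, and values are medians of duplicate plates.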

Doxorubicin + Tozasertib = compound: COc1cccc2c1C(=O)c1c(O)c3c(c(O)c1C2=O)C[C@@](O)(C(=O)CO)C[C@@H]3O[C@H]1C[C@H](N)[C@H](O)[C@H](C)O1 [Doxorubicin] + Cc1cc(Nc2cc(N3CCN(C)CC3)nc(Sc3ccc(NC(=O)C4CC4)cc3)n2)n[nH]1 [Tozasertib] (partner 0.1 µM)
Method in brief: as §1

Doxorubicin + Olaparib = compound: COc1cccc2c1C(=O)c1c(O)c3c(c(O)c1C2=O)C[C@@](O)(C(=O)CO)C[C@@H]3O[C@H]1C[C@H](N)[C@H](O)[C@H](C)O1 [Doxorubicin] + O=C(c1cc(Cc2n[nH]c(=O)c3ccccc23)ccc1F)N1CCN(C(=O)C2CC2)CC1 [Olaparib] (partner 8 µM)
Method in brief: as §1

Doxorubicin + Luminespib = compound: COc1cccc2c1C(=O)c1c(O)c3c(c(O)c1C2=O)C[C@@](O)(C(=O)CO)C[C@@H]3O[C@H]1C[C@H](N)[C@H](O)[C@H](C)O1 [Doxorubicin] + CCNC(=O)c1noc(-c2cc(C(C)C)c(O)cc2O)c1-c1ccc(CN2CCOCC2)cc1 [Luminespib] (partner 0.01 µM)
Method in brief: as §1

Cell Line	relative viability (BAY61-3606 + Vorinostat; first compound 0.02 µM)	relative viability (BAY61-3606 + Vorinostat; first compound 0.06325 µM)	relative viability (BAY61-3606 + Vorinostat; first compound 0.2 µM)	relative viability (BAY61-3606 + Vorinostat; first compound 0.6325 µM)	relative viability (BAY61-3606 + Vorinostat; first compound 2 µM)	relative viability (Doxorubicin + Tozasertib; first compound 0.001 µM)	relative viability (Doxorubicin + Tozasertib; first compound 0.003162 µM)	relative viability (Doxorubicin + Tozasertib; first compound 0.01 µM)	relative viability (Doxorubicin + Tozasertib; first compound 0.03162 µM)	relative viability (Doxorubicin + Tozasertib; first compound 0.1 µM)	relative viability (Doxorubicin + Olaparib; first compound 0.001 µM)	relative viability (Doxorubicin + Olaparib; first compound 0.003162 µM)	relative viability (Doxorubicin + Olaparib; first compound 0.01 µM)	relative viability (Doxorubicin + Olaparib; first compound 0.03162 µM)	relative viability (Doxorubicin + Olaparib; first compound 0.1 µM)	relative viability (Doxorubicin + Luminespib; first compound 0.001 µM)	relative viability (Doxorubicin + Luminespib; first compound 0.003162 µM)	relative viability (Doxorubicin + Luminespib; first compound 0.01 µM)	relative viability (Doxorubicin + Luminespib; first compound 0.03162 µM)	relative viability (Doxorubicin + Luminespib; first compound 0.1 µM)
NCI-H1651	0.62	0.509	0.523	0.539	0.542	0.643	0.793	0.648	0.319	0.157	0.216	0.182	0.205	0.184	0.198	0.749	0.954	0.66	0.305	0.216
BEN	0.545	0.577	0.573	0.546	0.588	0.587	0.564	0.576	0.469	0.54	1.07	1.09	0.897	0.938	1.13	0.368	0.39	0.317	0.277	0.283
EMC-BAC-2	0.499	0.385	0.6	0.42	0.425	0.321	0.26	0.308	0.25	0.216	0.487	0.367	0.355	0.317	0.302	1.25	1.18	1.04	0.551	0.425
LXF-289	0.802	0.839	0.666	0.849	0.782	0.205	0.192	0.192	0.221	0.2	1.03	1.12	0.998	1.07	1.15	0.63	0.576	0.703	0.635	0.658
ABC-1	1.41	1.08	1.3	1.3	1.28	0.223	0.207	0.153	0.184	0.181	0.946	0.761	0.723	0.525	0.306	0.484	0.418	0.347	0.339	0.213
NCI-H358	0.697	0.759	0.631	0.658	0.386	0.107	0.0976	0.0897	0.1	0.0933	0.592	0.535	0.347	0.12	0.116	0.213	0.471	0.291	0.392	0.189
NCI-H1355	0.722	0.617	0.574	0.645	0.604	0.632	0.508	0.52	0.443	0.598	0.732	0.688	0.694	0.704	0.85	0.697	0.829	0.686	0.605	0.732
EBC-1	–	–	–	–	–	–	–	–	–	–	0.682	0.735	0.73	0.54	0.284	–	–	–	–	–
NCI-H3122	1.01	1.03	0.893	1.05	0.95	0.339	0.375	0.335	0.169	0.141	0.535	0.616	0.58	0.62	0.634	0.0793	0.117	0.102	0.0975	0.0943
NCI-H2009	0.703	0.833	0.714	0.734	0.697	0.748	0.745	0.678	0.524	0.284	0.735	0.557	0.64	0.457	0.315	1.07	0.979	1.01	0.925	0.582
NCI-H520	0.768	0.861	0.624	0.71	0.638	0.409	0.432	0.434	0.343	0.413	0.318	0.337	0.313	0.248	0.297	0.249	0.242	0.266	0.18	0.217
SW 1573	0.817	0.643	0.578	0.815	0.344	0.185	0.144	0.148	0.103	0.0879	0.411	0.298	0.163	0.0977	0.047	0.22	0.206	0.178	0.0908	0.0847
HARA	0.547	0.47	0.415	0.462	0.466	0.112	0.126	0.241	0.128	0.145	1.05	0.8	0.722	0.718	0.759	0.644	1.1	0.696	0.641	0.325
NCI-H1563	–	–	–	–	–	–	–	–	–	–	–	–	–	–	–	0.486	0.549	0.536	0.528	0.491
NCI-H1648	0.797	0.44	0.648	–	0.706	0.55	0.471	0.348	0.304	0.456	0.618	1.05	0.5	0.492	0.791	–	–	–	–	–
HCC-78	0.432	0.423	0.444	0.553	0.41	0.491	0.44	0.403	0.353	0.388	0.866	0.994	1.04	0.799	0.701	–	–	–	–	–
A549	–	–	–	–	–	–	–	–	–	–	–	0.437	0.375	0.275	0.264	–	–	–	–	–
NCI-H1299	–	–	–	–	–	–	–	–	–	–	0.937	0.949	0.952	0.942	0.753	–	–	–	–	–
NCI-H1792	–	–	–	–	–	–	–	–	–	–	0.506	0.473	0.473	0.412	0.548	–	0.467	0.43	0.527	0.328
IA-LM	0.947	0.851	0.894	1.25	0.96	–	–	–	–	–	0.796	0.889	0.954	0.754	0.673	–	–	–	–	–
